Laboratory results as given in PMC9817974, “Pharmacokinetic Basis for Using Saliva Matrine Concentrations as a Clinical Compliance Monitoring in Antitumor B Chemoprevention Trials in Humans” (Cancers, 2022).

What was measured:
[1] = Single-dose oral pharmacokinetic study of ATB tablets in healthy human subjects (plasma and saliva, non-compartmental analysis); format: in vivo; details: after 2400 mg ATB oral administration; LLOQ of Dict […]
Description: In addition, in vivo correlation between plasma and saliva concentrations was determined as the secondary outcome.
The ratio of drug concentration in plasma and saliva were calculated using Equations (1) and (2). (1) RCmax=Cmax saliva/Cmax plasma (2) RAUC=AUC0–24 saliva/AUC0–24 plasma […]
S2.1. Human Pharmacokinetic Study Design
The study was conducted in two phases. Two self-volunteered subjects participated in the study […]
Participants refrained from consumption of […]
dosing blood and saliva samples were collected. Each participant received single-dose oral […]
saliva sample kit for salivary collection. Plasma samples were then collected by centrifugation of […]
hour post-administration. […]
administration. […] Throughout the […]
collected and saline lock was removed. Participants returned the next day morning for 24-hour […]
Participants fasted 8-12 hours before each

[2] = Sample stability of ATB components (bench, freeze-thaw, short-term, long-term); format: physicochemical; details: in % (unit assumed)
Description: samples for calibration were prepared. The study and QC samples were prepared on the same day as the UPLC-MS/MS analysis was done.
Calibration curves were prepared the same way as described in section S1.2.2. The linearity of each calibration curve was determined by plotting the peak area ratio of Matr, Maac, Dict, and Frax to I.S. in plasma. […] The lower limit of […] was defined based on a signal-to-noise ratio of 10:1.
S1.2.4 Extraction recovery and matrix effect
The extraction recoveries of Matr, Maac, Dict, and Frax were determined by comparing the relative peak areas obtained from blank plasma spiked with analytes and those obtained from water spiked with the same amounts of analytes. Matrix effect was determined by comparing the peak areas of blank plasma extracts spikes with analytes and I.S. with those of the standard solutions dried and reconstituted with mobile phase. The quality control samples were prepared in plasma.
Bench work (25°C for 4 hours), short-term (-20°C for 7 days), long-term (-80°C for 4 months) and three freeze-thaw cycle stabilities were determined.

[3] = as above; format: physicochemical; details: in % (unit assumed); remark: listed apart in the source
[4] = Stability of ATB tablets (ICH storage conditions); details: for remaining percentage in ATB tablets, Long term 3 months / remaining percentage in ATB tablets, Long term 6 months / remaining percentage in ATB tablets, Long term 12 months: 25 ± 2 °C/60 ± 5% RH
Description: Two independent batches of ATB tablets were tested according to International Conference on Harmonization (ICH) Guideline for long-term (12 months at 25 ± 2 °C/60 ± 5% RH), intermediate (6 months at 30 ± 2 °C/65 ± 5% RH), and accelerated (40 ± 2 °C/75 ± 5% RH) stability [12].

OCT1, OCT2 and OCT3 = tested on: OCT1, OCT2 and OCT3; parameters: method as in PMID 33896325; details: read-out: Km of uptake by OCT1, OCT2 and OCT3; cited from earlier work
[5] = parameters: method as in PMID 33896325; details: cited from earlier work

Structure (SMILES)	detection in plasma and saliva samples [1]	Stability, 3 cycles freeze-thaw ([2]; HQC concentration level)	Stability, Bench work (4 hrs, 25 oC) ([2]; HQC concentration level)	Stability, Short-term (7 days, -20 oC) ([2]; HQC concentration level)	Stability, 3 cycles freeze-thaw ([2]; LOQ concentration level)	Stability, 3 cycles freeze-thaw ([2]; MQC concentration level)	Stability, Bench work (4 hrs, 25 oC) ([2]; MQC concentration level)	Stability, Long-term (6 months, -80 oC) ([3]; HQC concentration level)	Stability, Bench work (4 hrs, 25 oC) ([3]; LOQ concentration level)	Stability, Long-term (6 months, -80 oC) ([3]; LOQ concentration level)	Stability, Short-term (7 days, -20 oC) ([3]; LOQ concentration level)	Stability, Long-term (6 months, -80 oC) ([3]; MQC concentration level)	Stability, Short-term (7 days, -20 oC) ([3]; MQC concentration level)	remaining percentage in ATB tablets, Long term 3 months [4] [%]	remaining percentage in ATB tablets, Long term 6 months [4] [%]	remaining percentage in ATB tablets, Long term 12 months [4] [%]	also measured
CC1=C2C(=O)O[C@@H](c3ccoc3)[C@]2(C)CCC1 [Frax, fraxinellone]	not detected in any study sample	98.9 ± 2.2	89.1 ± 9.9	99.1 ± 8.0	105.7 ± 3.2	104.0 ± 1.3	90.5 ± 8.0	94.8 ± 0.4	108.5 ± 5.0	85.7 ± 3.6	89.6 ± 0.5	90.1 ± 5.6	96.6 ± 5.8	92.4 ± 6.4	81.2 ± 10.1	93.8 ± 1.0	remaining percentage in ATB tablets, Intermediate 3 months ([4]; 30 ± 2 °C/65 ± 5% RH): 112.5 ± 7.2%; remaining percentage in ATB tablets, Intermediate 6 months ([4]; 30 ± 2 °C/65 ± 5% RH): 113.1 ± 7.2%; remaining percentage in ATB tablets, Accelerated term 3 months ([4]; 40 ± 2 °C/75 ± 5% RH): 84.3 ± 13.2%; remaining percentage in ATB tablets, Accelerated term 6 months ([4]; 40 ± 2 °C/75 ± 5% RH): 115.8 ± 1.5%
Oc1ccc2c(c1)OC[C@H]1c3cc4c(cc3O[C@@H]21)OCO4 [Maac, maackiain]	detected in 30 min plasma sample of only one participant	114.7 ± 2.8	108.7 ± 8.1	91.2 ± 8.0	113.3 ± 6.4	114.6 ± 3.2	109.1 ± 5.9	92.3 ± 5.7	93.8 ± 11.6	87.0 ± 5.1	99.6 ± 1.4	85.5 ± 0.4	89.1 ± 11.0	81.1 ± 5.3	101.6±0.2	89.1 ± 4.2	–
CN(C)C(=N)N=C(N)N [metformin]	–	–	–	–	–	–	–	–	–	–	–	–	–	–	–	–	Km (OCT1, OCT2 and OCT3): 285 to 3170 µM; saliva/plasma concentration ratio [5]: 0.29–0.39
